Active and inactive are the calls of the source. No cut-off for these calls is given here.

For data set [1], the system named is Primary lung fibroblast. Nature of the data set: Inhibition of type 1 collagen alpha2 polypeptide secretion in human lung fibroblasts at 4 uM incubated for 18 hrs followed by addition of fresh medium and measured after 3 hrs by Western blot analysis. The class given is functional, tissue-based.
The target of data set [2] is La-related protein 6 (Homo sapiens) (UniProt Q9BRS8). Put plainly: Inhibition of LARP6 La module (unknown origin) binding with collagen 5' stem loop mRNA assessed as decrease in La module monomer bound band intensity at 1 to 50 uM by gel mobility shift assay. Particulars: dose 1-50 µM.
The nature of data set [3]: Cytotoxicity against human lung fibroblasts assessed as effect on cell viability. In kind it is tissue-based. Conditions: primary lung fibroblast.
Data set [4] addresses La-related protein 6 (Homo sapiens) (UniProt Q9BRS8). Put plainly: Inhibition of LARP6 La domain (unknown origin) binding with collagen 5' stem loop mRNA at > 1 uM by gel mobility shift assay. Conditions: dose microM >1.
Data set [5] shares this target. Nature of the data set: Inhibition of LARP6 La domain (unknown origin) binding with collagen 5' stem loop mRNA assessed as decrease in La domain bound band intensity at 1 to 3 uM by gel mobility shift assay. Conditions: dose 1-3 µM.
Data set [6] in a line: Inhibition of type 1 collagen alpha1 polypeptide secretion in human lung fibroblasts incubated for 18 hrs followed by addition of fresh medium and measured after 3 hrs by Western blot analysis. In kind it is functional, tissue-based. Conditions: Primary lung fibroblast.
The subject of data set [7] is Primary lung fibroblast. Nature of the data set: Inhibition of type 1 collagen alpha1 polypeptide secretion in human lung fibroblasts at 5 uM incubated for 18 hrs followed by addition of fresh medium and measured after 3 hrs by Western blot analysis. In kind it is functional, tissue-based.
Data set [8] in a line: Inhibition of type 1 collagen alpha2 polypeptide secretion in human lung fibroblasts incubated for 18 hrs followed by addition of fresh medium and measured after 3 hrs by Western blot analysis. The class given is functional, tissue-based. Conditions: Primary lung fibroblast.
For data set [9], the target named is La-related protein 6 (Homo sapiens) (UniProt Q9BRS8). Put plainly: Inhibition of LARP6 La module (unknown origin) binding with collagen 5' stem loop mRNA at > 2.5 uM by gel mobility shift assay. Conditions: dose microM >2.5.
For data set [10] the target is unchanged. Nature of the data set: Inhibition of LARP6 La module (unknown origin) binding with collagen 5' stem loop mRNA assessed as decrease in La module dimer bound band intensity at 1 to 50 uM by gel mobility shift assay. Particulars: dose 1-50 µM.
For data set [11], the system named is Primary lung fibroblast. Nature of the data set: Inhibition of type 1 collagen secretion in human lung fibroblasts at 5 ug/ml incubated for 18 hrs followed by addition of fresh medium and measured after 3 hrs by Western blot analysis. In kind it is functional, tissue-based. Particulars: dose 5.0 µg/ml.

Chain of La-related protein 6 (Homo sapiens) (Q9BRS8 whole entry, looked up, the tested form may be a part): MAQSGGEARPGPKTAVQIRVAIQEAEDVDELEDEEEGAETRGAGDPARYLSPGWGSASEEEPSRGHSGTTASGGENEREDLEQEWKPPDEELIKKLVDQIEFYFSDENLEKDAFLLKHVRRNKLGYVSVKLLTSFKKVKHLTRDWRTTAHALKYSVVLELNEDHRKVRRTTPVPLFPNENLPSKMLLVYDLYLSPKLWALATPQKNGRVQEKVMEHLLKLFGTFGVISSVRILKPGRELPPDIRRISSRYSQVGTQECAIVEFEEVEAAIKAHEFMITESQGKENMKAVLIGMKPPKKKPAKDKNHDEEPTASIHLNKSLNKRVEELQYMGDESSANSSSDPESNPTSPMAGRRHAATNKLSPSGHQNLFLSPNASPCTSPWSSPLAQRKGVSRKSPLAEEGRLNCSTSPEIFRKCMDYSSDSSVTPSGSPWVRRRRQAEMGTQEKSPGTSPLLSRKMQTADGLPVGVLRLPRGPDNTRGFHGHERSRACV

Turning to `CCCCCCCCCCCCCC(=O)N[C@H]1C[C@@H](C(N)=O)N(c2cc(N3CCN(C(=O)c4cc(C)cc(C)c4)CC3)ncn2)C1`, the inhibition result (in the data set with Primary lung fibroblast [1]; in [2]; in [4]; in [5]; in the data set with Primary lung fibroblast [7]; in data set [9]) was “Active” each time. The inhibition result in data set [10] is “Active”. Moreover, the Activity entry in [3] is recorded as “Non-Toxic”. Further, the IC50 came out at 4.4 µM in [6] and 3.1 µM in [8].

For the molecule `CCCCCCCCCCCCCC(=O)N[C@H]1C[C@@H](C(N)=O)N(c2cc(N3CCN(C(=O)CCCc4ccccc4)CC3)ncn2)C1`, in the data set on Primary lung fibroblast [11], the inhibition result is “Active”.

The values above are taken from ChEMBL document CHEMBL4680378, “Discovery of a Lead Compound for Specific Inhibition of Type I Collagen Production in Fibrosis” (ACS Med Chem Lett, 2021).
